*1 amine or outer side, *2 acyl side, *3 side chain or, on linkers, in order; H or OH if unused. Where a SMILES comes first, the peptide text is derived from it. Bridges are numbered along the chain shown (N, C = ends). [ ]: non-standard residue; d: D form. TATA = O=C(CC[*:1])N1CN(C(=O)CC[*:2])CN(C(=O)CC[*:3])C1; Pip = O=C(O)[C@@H]1CCCCN1
target: T1, human Nectin-4 (Homo sapiens, UniProt Q96NY8); assay: Nectin-4 competition binding assay (fluorescence polarisation); details: competition with fluorescent peptide SEQ ID NO: 217; read-out: Ki
T1 sequence (Q96NY8 32-510): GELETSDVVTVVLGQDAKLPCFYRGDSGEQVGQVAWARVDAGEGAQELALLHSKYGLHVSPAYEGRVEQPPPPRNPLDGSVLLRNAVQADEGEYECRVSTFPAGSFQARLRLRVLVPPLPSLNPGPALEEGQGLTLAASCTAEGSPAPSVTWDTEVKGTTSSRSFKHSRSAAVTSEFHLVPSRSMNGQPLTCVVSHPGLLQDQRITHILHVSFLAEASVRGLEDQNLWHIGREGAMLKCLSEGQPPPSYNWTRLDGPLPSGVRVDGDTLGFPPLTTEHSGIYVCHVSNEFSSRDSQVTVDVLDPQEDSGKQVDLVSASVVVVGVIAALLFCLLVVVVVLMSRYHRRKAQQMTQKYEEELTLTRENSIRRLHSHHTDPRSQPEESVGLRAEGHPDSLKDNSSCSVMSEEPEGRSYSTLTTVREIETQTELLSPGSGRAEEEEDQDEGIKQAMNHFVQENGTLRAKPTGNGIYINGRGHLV
Method: Peptides were diluted to an appropriate concentration in assay buffer as described in the direct binding assay with a maximum of 5% DMSO, then serially diluted 1 in 2. Five μL of diluted peptide was added to the plate followed by 10 μL of human Nectin-4, then 10 μL fluorescent peptide added. Measurements were conducted as for the direct binding assay, however the gain was determined prior to the first measurement. Data analysis was in Systat Sigmaplot version 12.0 where the mP values were fit to a user defined cubic equation to generate a Ki value: • f=ymin+(ymax−ymin)/Lig*((Lig*((2*((Klig+Kcomp+Lig+Comp-Prot*c)^2-3*(Kcomp*(Lig-Prot*c)+Klig*(Comp-Prot*c)+Klig*Kcomp))^0.5*COS(ARCCOS((−2*(Klig+Kcomp+Lig+Comp-Prot*c)^3+9*(Klig+Kcomp+Lig+Comp-Prot*c)*(Kcomp*(Lig-Prot*c)+Klig*(Comp-Prot*c)+Klig*Kcomp)−27*(−1*Klig*Kcomp*Prot*c)/(2*((((Klig+Kcomp+Lig+Comp-Prot*c)^2−3*(Kcomp*(Lig-Prot*c)+Klig*(Comp-Prot*c)+Klig*Kcomp))^3)^0.5)))/3))−(Klig+Kcomp+Lig+Comp-Prot*c)))/((3*Klig)+((2*((Klig+Kcomp+Lig+Comp-Prot*c)^2−3*(Kcomp*(Lig-Prot*c)+Klig*(Comp-Prot*c)+Klig*Kcomp))^0.5*COS (ARCCOS ((−2*(Klig+Kcomp+Lig+Comp-Prot*c)^3+9*(Klig+Kcomp+Lig+Comp-Prot*c)*(Kcomp*(Lig-Prot*c)+Klig*(Comp-Prot*c)+Klig*Kcomp)-27*(−1*Klig*Kcomp*Prot*c))/(2*((((Klig+Kcomp+Lig+Comp-Prot*c)^2-3*(Kcomp*(Lig-Prot*c)+Klig*(Comp-Prot+c)+Klig*Kcomp))^3)^0.5))/3)−(Klig+Kcomp+Lig+Comp-Prot*c)))).
“Lig”, “KLig” and “Prot” were all defined values relating to: fluorescent peptide concentration, the Kd of the fluorescent peptide and Nectin concentration respectively.

Row | Structure (SMILES) | Ki [nM]
1 | CC[C@H](C)[C@@H]1NC(=O)[C@@H]2CCCCN2C(=O)[C@H](Cc2c[nH]c3ccccc23)NC(=O)[C@H](CO)NC(=O)[C@H](Cc2c[nH]c3ccccc23)NC(=O)[C@H](CC(N)=O)NC(=O)[C@H](CCCCN)NC(=O)[C@H](CCSC)NC(=O)[C@@H]2CSCCC(=O)N3CN(CN(C3)C(=O)CCSC[C@H](NC(C)=O)C(=O)N3CCC[C@H]3C(=O)N[C@@H](Cc3ccccc3)C(=O)NCC(=O)N2)C(=O)CCSC[C@@H](C(N)=O)NC(=O)[C@H](Cc2c[nH]c3ccccc23)NC1=O [BCY7595, Ac-(SEQ ID NO: 90)] (Ac-CPFGCMKNWSW[Pip]IWC-NH2; linker 1-5-15 via TATA) | 219
2 | CC[C@H](C)[C@@H]1NC(=O)[C@@H]2CCCN2C(=O)[C@H](Cc2c[nH]c3ccccc23)NC(=O)[C@H](CO)NC(=O)[C@H](Cc2c[nH]c3ccccc23)NC(=O)CNC(=O)[C@H](CO)NC(=O)[C@H](CCSC)NC(=O)[C@@H]2CSCCC(=O)N3CN(CN(C3)C(=O)CCSC[C@H](NC(=O)[C@H](CCC(=O)O)NC(=O)[C@H](CO)NC(=O)[C@@H](N)CC(=O)O)C(=O)N3CCC[C@H]3C(=O)N[C@@H](Cc3ccccc3)C(=O)NCC(=O)N2)C(=O)CCSC[C@@H](C(=O)N[C@@H](C)C(N)=O)NC(=O)[C@H](Cc2c[nH]c3ccccc23)NC1=O [BCY3389, DSE-(SEQ ID NO: 47)-A] (H-DSECPFGCMSGWSWPIWCA-NH2; linker 4-8-18 via TATA; N-terminus and C-terminus assumed) | 99.8
3 | CC[C@H](C)[C@@H]1NC(=O)[C@H](CCCNC(=N)N)NC(=O)[C@H](CC(N)=O)NC(=O)[C@@H]2CSCCC(=O)N3CN(CN(C3)C(=O)CCSC[C@H](NC(=O)[C@H](Cc3c[nH]c4ccccc34)NC(=O)[C@H](CCCCN)NC(=O)[C@H](CCC(N)=O)NC(C)=O)C(=O)N[C@@H](C)C(=O)N[C@@H](C)C(=O)N[C@@H](CC(C)C)C(=O)N[C@@H](CO)C(=O)N[C@@H](CC(=O)O)C(=O)N[C@@H](Cc3ccc(O)cc3)C(=O)N[C@@H](Cc3c[nH]c4ccccc34)C(=O)N2)C(=O)CCSC[C@@H](C(N)=O)NC1=O [BCY7625, Ac-QKW-(SEQ ID NO: 103)] (Ac-QKWCAALSDYWCNRIC-NH2; linker 4-12-16 via TATA; C-terminus assumed) | 141
4 | CC[C@H](C)[C@@H]1NC(=O)[C@@H]2CSCCC(=O)N3CN(CN(C3)C(=O)CCSC[C@H](NC(=O)[C@H](C)N)C(=O)N3CCC[C@H]3C(=O)N[C@@H](Cc3ccccc3)C(=O)NCC(=O)N2)C(=O)CCSC[C@@H](C(=O)N[C@@H](CCC(N)=O)C(=O)N[C@@H](CCSC)C(=O)N[C@@H](CCC(=O)O)C(N)=O)NC(=O)[C@H](Cc2c[nH]c3ccccc23)NC(=O)[C@H]([C@@H](C)CC)NC(=O)[C@@H]2CCCN2C(=O)[C@H](Cc2c[nH]c3ccccc23)NC(=O)[C@H](CO)NC(=O)[C@H](Cc2c[nH]c3ccccc23)NC(=O)[C@H](CO)NC(=O)[C@H](CCCCN)NC1=O [BCY3397, A-(SEQ ID NO: 55)-QME] (H-ACPFGCIKSWSWPIWCQME-NH2; linker 2-6-16 via TATA; N-terminus and C-terminus assumed) | 33.2
5 | CC[C@H](C)[C@@H]1NC(=O)[C@@H]2CCCN2C(=O)[C@H](Cc2ccccc2)NC(=O)[C@H](CO)NC(=O)[C@H](Cc2c[nH]c3ccccc23)NC(=O)[C@H](CC(N)=O)NC(=O)[C@H](CCCCN)NC(=O)[C@H](CCSC)NC(=O)[C@@H]2CSCCC(=O)N3CN(CN(C3)C(=O)CCSC[C@H](NC(C)=O)C(=O)N3CCC[C@H]3C(=O)N[C@@H](Cc3ccccc3)C(=O)NCC(=O)N2)C(=O)CCSC[C@@H](C(N)=O)NC(=O)[C@H](Cc2c[nH]c3ccccc23)NC1=O [BCY7589, Ac-(SEQ ID NO: 84)] (Ac-CPFGCMKNWSFPIWC-NH2; linker 1-5-15 via TATA; C-terminus assumed) | 34.5
6 | CC[C@H](C)[C@@H]1NC(=O)[C@@H]2CCCN2C(=O)[C@H](Cc2ccc(O)cc2)NC(=O)[C@H](CO)NC(=O)[C@H](Cc2c[nH]c3ccccc23)NC(=O)[C@H](CC(N)=O)NC(=O)[C@H](CCCCN)NC(=O)[C@H](CCSC)NC(=O)[C@@H]2CSCCC(=O)N3CN(CN(C3)C(=O)CCSC[C@H](NC(C)=O)C(=O)N3CCC[C@H]3C(=O)N[C@@H](Cc3ccccc3)C(=O)NCC(=O)N2)C(=O)CCSC[C@@H](C(N)=O)NC(=O)[C@H](Cc2c[nH]c3ccccc23)NC1=O [BCY7590, Ac-(SEQ ID NO: 85)] (Ac-CPFGCMKNWSYPIWC-NH2; linker 1-5-15 via TATA; C-terminus assumed) | 38.5
7 | CC[C@H](C)[C@@H]1NC(=O)[C@@H]2CCCN2C(=O)[C@H]([C@@H](C)O)NC(=O)[C@H](CO)NC(=O)[C@H](Cc2c[nH]c3ccccc23)NC(=O)[C@H](CC(N)=O)NC(=O)[C@H](CCCCNC(=N)N)NC(=O)[C@H](CCSC)NC(=O)[C@@H]2CSCCC(=O)N3CN(CN(C3)C(=O)CCSC[C@H](NC(C)=O)C(=O)N3CCC[C@H]3C(=O)N[C@@H](Cc3ccccc3)C(=O)N[C@H](CCC(=O)O)C(=O)N2)C(=O)CCSC[C@@H](C(N)=O)NC(=O)[C@H](Cc2c[nH]c3ccccc23)NC1=O [BCY7903, Ac-(SEQ ID NO: 140)] | 41
8 | CC[C@H](C)[C@@H]1NC(=O)[C@@H]2CCCN2C(=O)[C@H](Cc2c[nH]c3ccccc23)NC(=O)[C@H](CO)NC(=O)[C@H](Cc2c[nH]c3ccccc23)NC(=O)[C@H](CC(N)=O)NC(=O)[C@H](CCCCN)NC(=O)[C@H](CCSC)NC(=O)[C@@H]2CSCCC(=O)N3CN(CN(C3)C(=O)CCSC[C@H](NC(C)=O)C(=O)N3CCC[C@H]3C(=O)N[C@@H](Cc3ccccc3)C(=O)NCC(=O)N2)C(=O)CCSC[C@@H](C(N)=O)NC(=O)[C@H](Cc2ccc(O)cc2)NC1=O [BCY7597, Ac-(SEQ ID NO: 92)] (Ac-CPFGCMKNWSWPIYC-NH2; linker 1-5-15 via TATA; C-terminus assumed) | 169
9 | CC[C@H](C)[C@@H]1NC(=O)[C@@H]2CCCN2C(=O)[C@H](Cc2c[nH]c3ccccc23)NC(=O)[C@H](CO)NC(=O)[C@H](Cc2cccc3ccccc23)NC(=O)[C@H](CC(N)=O)NC(=O)[C@H](CCCCN)NC(=O)[C@H](CCSC)NC(=O)[C@@H]2CSCCC(=O)N3CN(CN(C3)C(=O)CCSC[C@H](NC(C)=O)C(=O)N3CCC[C@H]3C(=O)N[C@@H](Cc3ccccc3)C(=O)NCC(=O)N2)C(=O)CCSC[C@@H](C(N)=O)NC(=O)[C@H](Cc2c[nH]c3ccccc23)NC1=O [BCY7663, Ac-(SEQ ID NO: 111)] | 25.5
10 | CSCC[C@@H]1NC(=O)[C@@H]2CSCCC(=O)N3CN(CN(C3)C(=O)CCSC[C@H](NC(C)=O)C(=O)N3CCC[C@H]3C(=O)N[C@@H](Cc3cccc4ccccc34)C(=O)N[C@H](CC(=O)O)C(=O)N2)C(=O)CCSC[C@@H](C(N)=O)NC(=O)[C@H](Cc2c[nH]c3ccccc23)NC(=O)[C@@H]2C[C@@H](O)CN2C(=O)[C@@H]2CCCN2C(=O)[C@H]([C@@H](C)O)NC(=O)[C@H](CO)NC(=O)[C@H](Cc2c[nH]c3ccccc23)NC(=O)[C@H](CC(=O)O)NC(=O)[C@H](CCNC(=N)N)NC1=O [BCY8181, Ac-(SEQ ID NO: 186)] | 3.5
11 | CC[C@H](C)[C@@H]1NC(=O)[C@H](CCCNC(=N)N)NC(=O)CNC(=O)[C@@H]2CSCCC(=O)N3CN(CN(C3)C(=O)CCSC[C@@H](C(=O)N[C@@H](C)C(N)=O)NC1=O)C(=O)CCSC[C@H](NC(=O)[C@H](C)N)C(=O)N[C@@H](Cc1c[nH]c3ccccc13)C(=O)N1CCC[C@H]1C(=O)N[C@@H](CC(C)C)C(=O)N[C@@H](CC(=O)O)C(=O)N1CCC[C@H]1C(=O)N[C@@H](Cc1ccc(O)cc1)C(=O)N[C@@H](Cc1c[nH]c3ccccc13)C(=O)N2 [BCY430, A-(SEQ ID NO: 43)-A] (H-ACWPLDPYWCGRICA-NH2; linker 2-10-14 via TATA; N-terminus and C-terminus assumed) | 310
12 | CC[C@H](C)[C@@H]1NC(=O)[C@@H]2CCCN2C(=O)[C@H](Cc2c[nH]c3ccccc23)NC(=O)[C@H](CO)NC(=O)[C@H](Cc2c[nH]c3ccccc23)NC(=O)[C@H](CC(N)=O)NC(=O)[C@H](CCCCN)NC(=O)[C@H](CCSC)NC(=O)[C@@H]2CSCCC(=O)N3CN(CN(C3)C(=O)CCSC[C@H](NC(=O)[C@@H](CC(=O)O)NC(C)=O)C(=O)N3CCC[C@H]3C(=O)N[C@@H](Cc3ccccc3)C(=O)NCC(=O)N2)C(=O)CCSC[C@@H](C(N)=O)NC(=O)[C@H](Cc2c[nH]c3ccccc23)NC1=O [BCY7606, Ac-[dD]-(SEQ ID NO: 1)] (Ac-[dD]CPFGCMKNWSWPIWC-NH2; linker 2-6-16 via TATA) | 34

— patent US12459974B2, “Bicyclic peptide ligands specific for Nectin-4” (priority 2018, dated 2025)
